Test results reported in patent US20160130226A1, “SPIRO-SUBSTITUTED OXINDOLE DERIVATIVES HAVING AMPK ACTIVITY” (BOEHRINGER INGELHEIM INTERNATIONAL GMBH, priority 2013, published 2016).

What was measured:
[1] = target: T1, AMPK beta 1 (Homo sapiens, UniProt Q13131+Q9Y478); assay: in-cell-ELISA for phospho-ACC: activation of AMPK, beta 1 (HepG2 cells / C2C12 myotubes); format: cell-based; settings: 2 h, percentage activation over vehicle control; for activation at 1 µM / activation at 3 µM / activation at 10 µM: read-out: Percentage activation of beta 1 at given concentration
T1 construct: in-cell-ELISA for phospho-ACC (Acetyl-CoA carboxylase 1) in HepG2 cells (liver); endogenous in cells; host or cells: HepG2 (assignment to the beta 1 column inferred)
T1 sequence (Q9Y478 2-270 limits assumed): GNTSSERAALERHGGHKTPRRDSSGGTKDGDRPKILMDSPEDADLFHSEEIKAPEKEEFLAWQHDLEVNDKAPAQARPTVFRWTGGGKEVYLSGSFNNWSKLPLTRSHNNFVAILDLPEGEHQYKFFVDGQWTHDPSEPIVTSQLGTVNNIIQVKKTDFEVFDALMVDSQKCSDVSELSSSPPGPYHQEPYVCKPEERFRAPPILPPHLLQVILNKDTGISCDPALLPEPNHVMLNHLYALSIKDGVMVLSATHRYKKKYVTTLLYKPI
T1 sequence (Q13131 whole entry): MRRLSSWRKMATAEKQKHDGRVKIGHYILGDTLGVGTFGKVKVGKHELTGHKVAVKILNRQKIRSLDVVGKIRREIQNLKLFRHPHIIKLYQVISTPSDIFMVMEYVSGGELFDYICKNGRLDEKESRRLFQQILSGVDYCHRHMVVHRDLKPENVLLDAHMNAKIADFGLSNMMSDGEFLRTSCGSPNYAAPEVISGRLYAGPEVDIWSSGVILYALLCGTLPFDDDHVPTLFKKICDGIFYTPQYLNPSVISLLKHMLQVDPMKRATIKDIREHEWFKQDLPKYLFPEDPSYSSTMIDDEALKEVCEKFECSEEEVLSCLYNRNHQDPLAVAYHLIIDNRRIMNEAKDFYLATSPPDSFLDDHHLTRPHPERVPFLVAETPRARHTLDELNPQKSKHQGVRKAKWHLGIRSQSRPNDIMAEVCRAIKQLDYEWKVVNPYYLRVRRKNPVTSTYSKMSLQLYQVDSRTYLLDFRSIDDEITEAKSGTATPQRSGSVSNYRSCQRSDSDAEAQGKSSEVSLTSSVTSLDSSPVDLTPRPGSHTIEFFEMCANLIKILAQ
T1 sequence (P54619 whole entry partner): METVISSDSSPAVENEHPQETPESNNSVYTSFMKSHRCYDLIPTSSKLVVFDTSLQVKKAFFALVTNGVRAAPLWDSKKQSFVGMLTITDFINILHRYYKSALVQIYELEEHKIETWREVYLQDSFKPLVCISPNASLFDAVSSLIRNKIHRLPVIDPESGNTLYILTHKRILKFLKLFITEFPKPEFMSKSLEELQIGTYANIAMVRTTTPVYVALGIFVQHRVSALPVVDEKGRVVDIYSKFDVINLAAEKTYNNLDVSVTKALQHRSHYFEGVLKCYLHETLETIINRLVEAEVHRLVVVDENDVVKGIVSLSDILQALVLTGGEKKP
Description: (§1) Activation of AMPK by various compounds were measured using in-cell-ELISA for phospho-ACC (Acetyl-CoA carboxylase 1) in HepG2 cells (liver) and fully differentiated myotubes (C2C12 cells) grown in 96 well plate. Cells were treated with 1 μM, 3 μM or 10 μM of the molecule (Example) for 2 h in serum free DMEM media. After methanol fixation, cells were blocked with BSA followed by addition of anti-phospho ACC antibody (Cell Signaling) and HRP conjugated secondary antibody. Absorbance values taken at 450 nm were normalized with total DNA (Hoechest stain). Results were expressed as percentage activation over vehicle control.
(§2) Percentage activation at compound (Example) concentration of 1, 3 or 10 μM for compounds according to the invention are shown in the following table. The number of the compound corresponds to the number of the Example (Ex) in the experimental section.

[2] = target: T2, AMPK beta 2 (Mus musculus, UniProt Q6PAM0+Q8BRK8); assay: in-cell-ELISA for phospho-ACC: activation of AMPK, beta 2 (HepG2 cells / C2C12 myotubes); format: cell-based; settings: 2 h, percentage activation over vehicle control; for activation at 3 µM / activation at 1 µM / activation at 10 µM: read-out: Percentage activation of beta 2 at given concentration
T2 construct: fully differentiated myotubes (C2C12 cells) grown in 96 well plate; endogenous in cells; host or cells: C2C12 myotubes (assignment to the beta 2 column inferred)
T2 sequence (Q6PAM0 whole entry): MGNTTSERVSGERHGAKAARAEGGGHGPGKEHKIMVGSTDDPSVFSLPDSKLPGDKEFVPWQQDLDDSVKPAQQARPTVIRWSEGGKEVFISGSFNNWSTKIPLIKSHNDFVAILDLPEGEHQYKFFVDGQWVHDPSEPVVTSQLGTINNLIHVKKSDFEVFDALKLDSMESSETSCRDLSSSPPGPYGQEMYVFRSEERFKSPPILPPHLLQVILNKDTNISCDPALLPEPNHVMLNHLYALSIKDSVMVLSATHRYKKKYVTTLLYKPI
T2 sequence (Q8BRK8 whole entry): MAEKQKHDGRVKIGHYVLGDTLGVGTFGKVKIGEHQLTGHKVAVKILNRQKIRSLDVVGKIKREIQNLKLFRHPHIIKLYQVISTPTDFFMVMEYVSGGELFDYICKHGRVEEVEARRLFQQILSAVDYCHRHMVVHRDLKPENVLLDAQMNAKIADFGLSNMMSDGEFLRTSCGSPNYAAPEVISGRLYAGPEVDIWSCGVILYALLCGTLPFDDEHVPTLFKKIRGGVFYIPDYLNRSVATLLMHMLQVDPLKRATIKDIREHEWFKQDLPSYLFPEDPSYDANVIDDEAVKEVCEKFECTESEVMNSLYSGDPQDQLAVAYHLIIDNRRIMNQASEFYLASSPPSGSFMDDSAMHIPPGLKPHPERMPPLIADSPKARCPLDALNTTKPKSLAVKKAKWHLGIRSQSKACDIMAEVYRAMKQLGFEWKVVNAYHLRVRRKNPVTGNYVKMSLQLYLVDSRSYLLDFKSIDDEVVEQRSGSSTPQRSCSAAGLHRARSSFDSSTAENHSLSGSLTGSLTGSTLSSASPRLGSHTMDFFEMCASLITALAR
T2 sequence (O54950 whole entry partner): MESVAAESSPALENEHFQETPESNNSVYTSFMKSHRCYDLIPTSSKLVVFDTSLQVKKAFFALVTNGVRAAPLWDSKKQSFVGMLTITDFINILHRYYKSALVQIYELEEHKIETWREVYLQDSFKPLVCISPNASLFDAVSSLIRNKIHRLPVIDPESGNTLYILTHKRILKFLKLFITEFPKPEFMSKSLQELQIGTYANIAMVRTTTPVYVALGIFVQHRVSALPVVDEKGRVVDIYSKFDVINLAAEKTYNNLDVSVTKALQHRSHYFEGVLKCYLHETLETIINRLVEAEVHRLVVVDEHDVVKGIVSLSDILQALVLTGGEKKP
Description: as §1, §2

| SMILES | activation at 1 µM ([1]; 1 μM) [%] | activation at 3 µM ([2]; 3 μM) [%] | activation at 1 µM ([2]; 1 μM) [%] | other results |
| --- | --- | --- | --- | --- |
| Cc1ccc(C2CC23C(=O)Nc2cc(F)c(-c4ccc(-c5ccc(-n6cncn6)cc5)cc4)cc23)cc1C(=O)O (centres unmarked) [Example 145] |  |  |  | Percentage activation of beta 1 at given concentration ([1]; 1 μM): 67% at 1 μM; Percentage activation of beta 2 at given concentration ([2]; 1 μM): 138% at 1 μM |
| Cc1ccc(C2CC23C(=O)N(CC2CC2)c2cc(Cl)c(-c4ccc(-c5ccncc5)cc4)cc23)cc1C(=O)O (centres unmarked) [Example 107] | 94 | 65 |  |  |
| CC(C)c1ccc(C2CC23C(=O)Nc2cc(Cl)c(-c4ccc(C5(CO)CC5)cc4)cc23)cc1C(=O)O (centres unmarked) [Example 46] |  | 42 |  | activation at 3 µM ([1]; 3 μM): 83% |
| O=C(O)c1cccc(C2CC23C(=O)Nc2cc(F)c(-c4ccc(-c5ccc(-n6cccn6)cc5)cc4)cc23)c1 (centres unmarked) [Example 170] | 58 |  | 50 |  |
| Cc1ccc(C2CC23C(=O)Nc2cc(Cl)c(-c4ccc(-c5ccc(S(C)(=O)=O)cc5)cc4)cc23)cc1C(=O)O (centres unmarked) [Example 97] | 99 |  | 37 |  |
| O=C(O)c1ccc(C2CC23C(=O)Nc2cc(Cl)c(-c4ccc(-c5ccncc5)cc4)cc23)cc1 (centres unmarked) [Example 95] |  |  |  | activation at 10 µM [1]: 94%; activation at 10 µM [2]: 34% |
| Cc1ccc(C2CC23C(=O)Nc2cc(Cl)c(-c4ccc(-c5ccc(-n6ccnn6)cc5)cc4)cc23)cc1C(=O)O (centres unmarked) [Example 134] |  |  |  | Percentage activation of beta 1 at given concentration ([1]; 1 μM): 123% at 1 μM; Percentage activation of beta 2 at given concentration ([2]; 1 μM): 47% at 1 μM |
| Cc1ccc(C2CC23C(=O)Nc2cc(Cl)c(-c4ccc(-c5ccnc(N(C)C)c5)cc4)cc23)cc1C(=O)O (centres unmarked) [Example 86] |  | 49 |  | activation at 3 µM ([1]; 3 μM): 95% |
| COc1ccc(C2CC23C(=O)Nc2cc(F)c(-c4ccc(-c5ccc(-n6ccnn6)cc5)cc4)cc23)cc1C(=O)O (centres unmarked) [Example 169] | 36 |  | 61 |  |
| Cc1ccc(C2CC23C(=O)Nc2cc(Cl)c(-c4ccc(-c5ccccc5O)cc4)cc23)cc1CO (centres unmarked) [Example 181] | 88 |  | 88 |  |
| CC(C)(C(=O)O)c1ccc(C2CC23C(=O)Nc2cc(F)c(-c4ccc(-c5ccc(-n6cncn6)cc5)cc4)cc23)cc1 (centres unmarked) [Example 162] |  |  | 79 | Percentage activation of beta 1 at given concentration ([1]; 1 μM): 61% at 1 μM |
| Cc1ccc(C2CC23C(=O)Nc2c3cc(-c3ccc(-c4ccc(-n5cncn5)cc4)cc3)c(Cl)c2Cl)cc1C(=O)O (centres unmarked) [Example 149] | 26 |  | 62 |  |
| COc1ccc(C2CC23C(=O)Nc2cc(Cl)c(-c4ccc(-c5ccc(-n6cncn6)cc5)cc4)cc23)cc1CC(=O)O (centres unmarked) [Example 123] | 66 |  | 85 |  |
| Cc1ccc(C2CC23C(=O)Nc2cc(Cl)c(-c4ccc(-c5ccc(-n6ccnn6)cc5)cc4)cc23)cc1C(=O)O (centres unmarked) [Example 135] |  |  |  | Percentage activation of beta 1 at given concentration ([1]; 1 μM): 97% at 1 μM; Percentage activation of beta 2 at given concentration ([2]; 1 μM): 214% at 1 μM |
| COc1ccc(C2CC23C(=O)Nc2cc(Cl)c(-c4ccc(-c5ccc(-n6cncn6)cc5)cc4)cc23)cc1C(=O)O (centres unmarked) [Example 128] | 66 | 198 |  |  |
| Cc1ccc(C2CC23C(=O)Nc2cc(Cl)c(-c4ccc(-c5ccc(-n6cccn6)cc5)cc4)cc23)cc1C(=O)O (centres unmarked) [Example 114] | 79 | 57 |  |  |
| CN1C(=O)C2(CC2c2ccc(CC(=O)O)cc2)c2cc(-c3ccc(-c4ccncc4)cc3)c(Cl)cc21 (centres unmarked) [Example 102] |  |  |  | activation at 3 µM ([1]; 3 μM): 33%; activation at 10 µM [2]: 115% |
| CCc1ccc(C2CC23C(=O)Nc2cc(Cl)c(-c4ccc(-c5ccc(-n6cncn6)cc5)cc4)nc23)cc1C(=O)O (centres unmarked) [Example 133] | 49 |  | 36 |  |
| Cc1ccc(C2CC23C(=O)Nc2cc(Cl)c(-c4ccc(-c5ccc(-n6ccnc6C)cc5)cc4)cc23)cc1C(=O)O (centres unmarked) [Example 150] | 18 |  | 81 |  |
| COc1ccc(C2CC23C(=O)Nc2cc(F)c(-c4ccc(-c5ccc(-n6cncn6)cc5)cc4)cc23)cc1C(=O)O (centres unmarked) [Example 168] | 55 |  | 84 |  |
| Cc1ccc(C2CC23C(=O)Nc2cc(F)c(-c4ccc(-c5ccc(-n6cncn6)cc5)cc4)cc23)cc1C(=O)O (centres unmarked) [Example 146] |  |  |  | Percentage activation of beta 1 at given concentration ([1]; 1 μM): 78% at 1 μM; Percentage activation of beta 2 at given concentration ([2]; 1 μM): 89% at 1 μM |
| CCN1C(=O)C2(CC2c2ccc(C)c(C(=O)O)c2)c2cc(-c3ccc(-c4ccncc4)cc3)c(Cl)cc21 (centres unmarked) [Example 103] |  | 2 |  | activation at 3 µM ([1]; 3 μM): 74% |

| SMILES | activation at 1 µM ([1]; 1 μM) [%] | activation at 3 µM ([2]; 3 μM) [%] | activation at 1 µM ([2]; 1 μM) [%] | other results |
| --- | --- | --- | --- | --- |
| Cc1ccc(C2CC23C(=O)N(CC2CC2)c2cc(Cl)c(-c4ccc(-c5ccncc5)cc4)cc23)cc1C(=O)O (centres unmarked) [Example 108] |  |  |  | Percentage activation of beta 1 at given concentration ([1]; 3 μM): 72% at 3 μM; Percentage activation of beta 2 at given concentration ([2]; 3 μM): 54% at 3 μM |
| Cc1ccc(C2CC23C(=O)Nc2cc(Cl)c(-c4ccc(-c5ccc(-n6cncn6)cc5)cc4)nc23)cc1C(=O)O (centres unmarked) [Example 125] | 81 |  | 46 |  |
| COc1ccc(C2CC23C(=O)Nc2cc(Cl)c(-c4ccc(-c5ccc(-n6ccnn6)cc5)cc4)cc23)cc1C(=O)O (centres unmarked) [Example 139] |  |  | 283 | activation at 3 µM ([1]; 3 μM): 85% |
| COc1ccc(C2CC23C(=O)Nc2cc(Cl)c(-c4ccc(-c5ccccc5O)cc4)cc23)cc1CC(=O)O (centres unmarked) [Example 25] | 62 | 101 |  |  |
| Cc1ccc(C2CC23C(=O)Nc2cc(F)c(-c4ccc(-c5ccccc5O)cc4)cc23)cc1C(=O)O (centres unmarked) [Example 5] |  |  | 50 | activation at 3 µM ([1]; 3 μM): 133% |
| Cc1ccc(C2CC23C(=O)Nc2cc(Cl)c(-c4ccc(-c5ccc(-n6cncn6)cc5)cc4)cc23)cc1C(=O)O (centres unmarked) [Example 115] |  |  | 114 | Percentage activation of beta 1 at given concentration ([1]; 1 μM): 132% at 1 μM |
| O=C(O)Cc1ccc(C2CC23C(=O)Nc2cc(Cl)c(-c4ccc(-c5ccccc5O)cc4)cc23)cc1 (centres unmarked) [Example 33] |  | 83 |  | activation at 3 µM ([1]; 3 μM): 71% |
| COc1ccc(C2CC23C(=O)Nc2cc(F)c(-c4ccc(-c5ccc(-n6cncn6)cc5)cc4)cc23)cc1CC(=O)O (centres unmarked) [Example 178] | 98 |  | 120 |  |
| O=C(O)c1cccc(C2CC23C(=O)Nc2cc(Cl)c(-c4ccc(-c5ccncc5)cc4)cc23)c1 (centres unmarked) [Example 80] |  | 54 |  | activation at 10 µM [1]: 137% |
| Cc1ccc(C2CC23C(=O)Nc2cc(F)c(-c4ccc(-c5ccccc5O)cc4)cc23)cc1CO (centres unmarked) [Example 190] | 121 |  | 94 |  |
| O=C(O)Cc1cccc(C2CC23C(=O)Nc2cc(F)c(-c4ccc(-c5ccc(-n6cncn6)cc5)cc4)cc23)c1 (centres unmarked) [Example 175] | 119 |  | 60 |  |
| CC(C)c1ccc(C2CC23C(=O)Nc2cc(Cl)c(-c4ccc(-c5ccc(-n6cncn6)cc5)cc4)cc23)cc1C(=O)O (centres unmarked) [Example 132] | 59 |  | 153 |  |
| Cc1ccc(C2CC23C(=O)N(C)c2cc(Cl)c(-c4ccc(-c5ccncc5)cc4)cc23)cc1C(=O)O (centres unmarked) [Example 101] | 103 | 46 |  |  |
| CC(C)(C(=O)O)c1ccc(C2CC23C(=O)Nc2cc(F)c(-c4ccc(-c5ccc(-n6cccn6)cc5)cc4)cc23)cc1 (centres unmarked) [Example 158] | 78 |  | 38 |  |
| COc1ccc(C2CC23C(=O)N(C)c2cc(Cl)c(-c4ccc(-c5ccccc5O)cc4)cc23)cc1CC(=O)O (centres unmarked) [Example 35] |  | 23 |  | activation at 3 µM ([1]; 3 μM): 27% |
| Cc1ccc(C2CC23C(=O)Nc2cc(F)c(-c4ccc(-c5ccc(-n6cccn6)cc5)cc4)cc23)cc1C(=O)O (centres unmarked) [Example 142] |  |  | 66 | Percentage activation of beta 1 at given concentration ([1]; 1 μM): 89% at 1 μM |
| Cc1ccc(C2CC23C(=O)Nc2cc(Cl)c(-c4ccc(-c5ccc(-n6cccn6)cc5)cc4)nc23)cc1C(=O)O (centres unmarked) [Example 138] | 72 |  | 173 |  |
| CCc1ccc(C2CC23C(=O)Nc2cc(Cl)c(-c4ccc(-c5ccc(-n6cncn6)cc5)cc4)cc23)cc1C(=O)O (centres unmarked) [Example 130] | 52 |  | 102 |  |
| COc1ccc(C2CC23C(=O)Nc2cc(F)c(-c4ccc(-c5ccc(-n6cccn6)cc5)cc4)cc23)cc1CC(=O)O (centres unmarked) [Example 176] | 91 |  | 126 |  |
| Cc1ccc(C2CC23C(=O)Nc2cc(Cl)c(-c4ccc(-c5ccncc5)cc4)cc23)cc1C(=O)O (centres unmarked) [Example 60] | 66 | 105 |  |  |
| CC(C)c1ccc(C2CC23C(=O)N(C)c2cc(Cl)c(-c4ccc(-c5ccncc5O)cc4)cc23)cc1C(=O)O (centres unmarked) [Example 40] |  | 32 |  | activation at 3 µM ([1]; 3 μM): 99% |
